Laboratory results taken from the NIST ThermoML archive (doi:10.1021/je060179e).

Experiment: xn = mol fraction of the nth substance listed
Conditions: for mass density: 101 kPa, Liquid

CCCCCCO [hexan-1-ol] + CCCCCCC
Conditions | mass density [kg/m3] | surface tension liquid-gas [mN/m]
288.15 K, x2 = 0.05 | 814.76 | –
288.15 K, x2 = 0.0507 | – | 25.6
288.15 K, x2 = 0.0976 | 807.66 | –
288.15 K, x2 = 0.1018 | – | 25.01
288.15 K, x2 = 0.2001 | – | 24.02
288.15 K, x2 = 0.3087 | – | 23.22
288.15 K, x2 = 0.3197 | 775.17 | –
288.15 K, x2 = 0.3943 | 764.62 | –
288.15 K, x2 = 0.3949 | – | 22.55
288.15 K, x2 = 0.5021 | – | 22.16
288.15 K, x2 = 0.5088 | 748.93 | –
288.15 K, x2 = 0.6053 | – | 21.8
288.15 K, x2 = 0.6171 | 734.53 | –
288.15 K, x2 = 0.7045 | 723.24 | –
288.15 K, x2 = 0.7097 | – | 21.46
288.15 K, x2 = 0.8055 | – | 21.2
288.15 K, x2 = 0.808 | 710.42 | –
288.15 K, x2 = 0.9066 | – | 21.05
288.15 K, x2 = 0.9072 | 698.54 | –
288.15 K, x2 = 0.9517 | – | 20.94
293.15 K, x2 = 0.0494 | – | 25.01
293.15 K, x2 = 0.05 | 811.17 | –
293.15 K, x2 = 0.0976 | 804.03 | –
293.15 K, x2 = 0.1036 | – | 24.45
293.15 K, x2 = 0.201 | – | 23.47
293.15 K, x2 = 0.3037 | – | 22.65
293.15 K, x2 = 0.3197 | 771.33 | –
293.15 K, x2 = 0.3943 | 760.72 | –
293.15 K, x2 = 0.4422 | – | 21.75
293.15 K, x2 = 0.5056 | – | 21.54
293.15 K, x2 = 0.5088 | 744.95 | –
293.15 K, x2 = 0.5979 | – | 21.26
293.15 K, x2 = 0.6171 | 730.47 | –
293.15 K, x2 = 0.6999 | – | 20.8
293.15 K, x2 = 0.7045 | 719.14 | –
293.15 K, x2 = 0.808 | 706.27 | –
293.15 K, x2 = 0.8091 | – | 20.54
293.15 K, x2 = 0.9061 | – | 20.43
293.15 K, x2 = 0.9072 | 694.33 | –
293.15 K, x2 = 0.951 | – | 20.29
298.15 K, x2 = 0.0497 | – | 24.61
298.15 K, x2 = 0.05 | 807.56 | –
298.15 K, x2 = 0.0976 | 800.37 | –
298.15 K, x2 = 0.0987 | – | 24.05
298.15 K, x2 = 0.2023 | – | 22.92
298.15 K, x2 = 0.3096 | – | 22.09
298.15 K, x2 = 0.3197 | 767.46 | –
298.15 K, x2 = 0.3943 | 756.8 | –
298.15 K, x2 = 0.4078 | – | 21.45
298.15 K, x2 = 0.5054 | – | 21.04
298.15 K, x2 = 0.5088 | 740.94 | –
298.15 K, x2 = 0.6099 | – | 20.58
298.15 K, x2 = 0.6171 | 726.39 | –
298.15 K, x2 = 0.7045 | 715.01 | –
298.15 K, x2 = 0.7075 | – | 20.28
298.15 K, x2 = 0.808 | 702.07 | –
298.15 K, x2 = 0.8127 | – | 20.04
298.15 K, x2 = 0.905 | – | 19.93
298.15 K, x2 = 0.9072 | 690.09 | –
298.15 K, x2 = 0.9515 | – | 19.74
303.15 K, x2 = 0.0488 | – | 24.1
303.15 K, x2 = 0.05 | 803.92 | –
303.15 K, x2 = 0.0976 | 796.68 | –
303.15 K, x2 = 0.1027 | – | 23.55
303.15 K, x2 = 0.1865 | – | 22.62
303.15 K, x2 = 0.31 | – | 21.59
303.15 K, x2 = 0.3197 | 763.56 | –
303.15 K, x2 = 0.3943 | 752.84 | –
303.15 K, x2 = 0.4122 | – | 20.97
303.15 K, x2 = 0.5086 | – | 20.49
303.15 K, x2 = 0.5088 | 736.9 | –
303.15 K, x2 = 0.6147 | – | 20
303.15 K, x2 = 0.6171 | 722.28 | –
303.15 K, x2 = 0.7045 | 710.84 | –
303.15 K, x2 = 0.7097 | – | 19.78
303.15 K, x2 = 0.808 | 697.85 | –
303.15 K, x2 = 0.8089 | – | 19.54
303.15 K, x2 = 0.9068 | – | 19.26
303.15 K, x2 = 0.9072 | 685.82 | –
303.15 K, x2 = 0.9519 | – | 19.13
308.15 K, x2 = 0.0428 | – | 23.64
308.15 K, x2 = 0.05 | 800.26 | –
308.15 K, x2 = 0.0976 | 792.98 | –
308.15 K, x2 = 0.1025 | – | 23.03
308.15 K, x2 = 0.1986 | – | 22
308.15 K, x2 = 0.3055 | – | 21.1
308.15 K, x2 = 0.3197 | 759.64 | –
308.15 K, x2 = 0.3943 | 748.86 | –
308.15 K, x2 = 0.403 | – | 20.52
308.15 K, x2 = 0.498 | – | 20.11
308.15 K, x2 = 0.5088 | 732.83 | –
308.15 K, x2 = 0.6165 | – | 19.57
308.15 K, x2 = 0.6171 | 718.13 | –
308.15 K, x2 = 0.7042 | – | 19.35
308.15 K, x2 = 0.7045 | 706.64 | –
308.15 K, x2 = 0.808 | 693.59 | –
308.15 K, x2 = 0.8118 | – | 19.06
308.15 K, x2 = 0.9054 | – | 18.89
308.15 K, x2 = 0.9072 | 681.51 | –
308.15 K, x2 = 0.9503 | – | 18.77
